Where two headings read alike, the source gives them in different places.
Tests used:
[1] = previously published spectra, normalised; cited from earlier work
[2] = Spectral analysis: absorbance and fluorescence spectra; format: physicochemical; settings: DNA binding buffer, emission 530 nm
Experimental: Absorbance spectra were obtained using a Perkin-Elmer Lambda 16 UV spectrometer and a 10 μM solution of agent dissolved in dichloromethane and measured in a 1 cm path length quartz-silica cuvette. Fluorescence spectra for a 0.8 ml solution of 20 μM DRAQ5 in a 1 cm path length semi-micro quartz silica cuvette were determined by exciting at 647 nm wavelength or monitoring emission at 670 nm wavelength. Fluorescence measurements were made on a Perkin Elmer LS50 spectrofluorometer with slit widths set at 10 nm. The spectrofluorometer was equipped with a red-sensitive photomultiplier tube (PMT; type R928; Hamamatsu Photonics KK, Japan). Data were accumulated for four scans for each condition and exported into a spreadsheet program to correct values for the buffer control and to determine emission maxima. DNA-DRAQ5 fluorescence was measured by the addition of microlitre volumes of concentrated calf thymus DNA solutions to the cuvette with mixing. Both agent and DNA were prepared in DNA binding buffer (0.05 M sodium phosphate, pH 6.2, 0.05 M NaCl, 0.001 M EDTA; 3). The spectra shown were corrected for the buffer background and not for the spectral sensitivity of the PMT. Rhodamine 123 spectra were generated in DNA binding buffer using either 488/5 nm excitation or monitoring emission at 530/5 nm. […]

[3] = test system: human B cell lymphoma cell line; assay: Dual laser flow cytometry of DRAQ5NO with Annexin V-FITC (Cytometer D); format: cell-based; settings: 50 μM DRAQ5NO, 633 nm excitation, FL4-H
Description: The system was a FACS Vantage cell sorter (Becton Dickinson Inc., Cowley, UK) incorporating a Coherent Enterprise II laser simultaneously emitting at multiline UV (350-360 nm range) and 488 nm wavelengths with the beams made non-colinear using dichroic separators. Beam-combining optics were used to align the UV beam with that emitted by a Spectra Physics 127-35 helium-neon laser (max 35 mW output) emitting at 633 nm with a temporal separation of about 25 μsec from that of the primary 488 nm beam. Forward light scatter, 90° light scatter and fluorescence emissions were collected for 1×10^4 cells using the forward light scatter parameter as the master signal from the primary 488 nm beam, while side scatter was collected through a 488/10 nm bandpass filter. The analysis optics were: i) primary beam-originating signals analysed at FL1 (FITC filter; barrier filter of 530/30 nm) after transmission at SP610 and SP560 dichroics, or at FL2 (barrier filters of 585/42 nm or 575/26 nm) after transmission at SP610 and reflection at SP560 dichroics, or at FL3 (barrier filter of LP715 nm) after reflection at a SP610 dichroic; ii) delayed beam-originating signals analysed at FL4 (barrier filter of LP695 nm) or at FL5 (barrier filter of DF424/44 nm) after transmission or reflection at a LP640 dichroic respectively. Forward and 90° light scatter, were analysed to exclude any cell debris. […]

Molecule: fluorescein isothiocyanate [FITC]
- Exλmax [1]: 490 nm

Molecule: rhodamine 123
- Exλmax [2]: 511 nm

Molecule: Texas Red
- Exλmax [1]: 596 nm

Molecule: C[N+](C)([O-])CCNc1ccc(O)c2c1C(=O)c1c(O)ccc(NCC[N+](C)(C)[O-])c1C2=O [DRAQ5N]
- level of DRAQ5NO staining in stage 1 populations (intact viable cells) [3]: low level
- level of DRAQ5NO staining in stage 3 cells (late stage apoptotic/dead cells) [3]: increased level

Reference: US7605280B2, “Anthraquinone and its derivatives” (Biostatus Limited, priority 1998, dated 2009)
